Earlier results on one compound are cited in patent publication US9758545B2, “Sensor with a scaffold having changeable conformations” (UNIVERSITÉ DE FRIBOURG, priority 2010, dated 2017).

For the data set the following is noted: antibiotics integrated into implant cements.

SMILES strings stand for the structures.

Regarding `CN[C@H](CC(C)C)C(=O)N[C@H]1C(=O)N[C@@H](CC(N)=O)C(=O)N[C@H]2C(=O)N[C@H]3C(=O)NC(C(=O)N[C@@H](C(=O)O)c4cc(O)cc(O)c4-c4cc3ccc4O)[C@H](O)c3ccc(c(Cl)c3)Oc3cc2cc(c3O[C@@H]2OC(CO)[C@@H](O)C(O)C2O[C@H]2CC(C)(N)[C@H](O)C(C)O2)Oc2ccc(cc2Cl)[C@H]1O` (stereo partly shown) [Vancomycin], the temperature sensitive above result was “above 25 °C”.
